Data on two molecules can be found in patent US12410141B2, “Anti-cancer spirocyclic-guanidine compounds and uses thereof” (The Johns Hopkins University, priority 2020, dated 2025).

A short description of one data set: Neat solution stability. Type of data set: physicochemical. Particulars: 10 μM, 37° C. As to the method:
(§1) Human and mouse liver microsomes and NADPH regenerating system solutions were purchased from Corning Life Sciences (Tewsbury, MA). Human and mouse K2EDTA was purchased from BioIVT (Westbury, NY). Metabolic studies in liver microsomes (0.125 mg/mL) were conducted in 1× phosphate buffered saline (pH 7.4), NADPH-generating system, and 10 μM of RA475 in a final volume of 250 μl. An incubation mixture with and without NADPH-generating system as well as a neat solution without microsomes and NADPH-generating system were prepared. RA475 was added at the same concentration level into human and mouse EDTA plasma. All reactions were initiated with the addition of RA475. Incubations were performed in glass tubes maintained at 37° C. in a shaker bath. At 0, 30, and 60 minutes, 10 μL aliquots were sampled from the reaction mixture and 0.5 mL of acetonitrile containing internal standard (Up284) was added to each samples. Samples were vortex-mixed and underwent centrifugation for 5 min at 1430×g. A 10 μL aliquot of the supernatant was injected onto the LC-MS instrument for qualitative analysis using a temperature-controlled autosampling device operating at 5° C. Chromatographic analysis was performed using a Waters Acquity™ Ultra Performance LC. […] The mobile phase used for the chromatographic separation was composed of water (mobile phase A) and acetonitrile (mobile phase B) containing 0.1% (v/v) formic acid with a flow rate of 0.3 mL/min. The initial mobile phase composition was 80% mobile phase A and 20% mobile phase B. From 0.5 to 1 min, mobile phase B was increased linearly from 20% to 100%. From 1 to 3 min, mobile phase B was maintained at 100%. From 3.0 to 3.1 min, the gradient decreased to 20% mobile phase B and the conditions were maintained until 4.1 min to re-equilibrate the column for the next injection. The column effluent was monitored using an AB Sciex 5500 triple quadrupole mass spectrometer. The instrument was equipped with an electrospray interface, operated in a positive mode and controlled by the Analyst v1.6 software. For the stability study, the mass spectrometer was programmed to monitor the following MRM transition 408.2→366.1 for RA475 and 366.2→155.8 for UP284 (internal standard). Results were assessed qualitatively comparing the average area ratio of RA475 at 0 hr to area ratio at 30 and 60 minutes for both mouse and human liver microsomes. RA475 was not analyzed for metabolites due to the concentration of RA475 not decreasing.

Data set [1] can be described thus: Plasma stability, human EDTA plasma. Format: in vitro ADME. Particulars: 37° C. As to the method:
as §1

The subject of data set [2] is high molecular weight polyubiquitinated proteins in SKOV3 cells. Briefly: Western blot for polyubiquitinated proteins, SKOV3 cells. Format: cell-based. To be noted: 12 hr, Up284 and RA475 0.5 and 1 μM, RA190 1 μM. Here is the method: Cell lysate (10-20 μg total protein) prepared in MPER (Pierce) from each sample was subjected to SDS-PAGE, transferred to PVDF membranes and analyzed by Western blot using antibodies specific for ubiquitin (P4D1, sc-8017, Santa Cruz), or after stripping antibody for actin (#66009, Protein Tech Group), at the dilutions recommended by the manufacturers, and for secondary antibodies either peroxidase-linked anti-mouse IgG or anti-rabbit IgG (GE Healthcare UK Ltd) were utilized at the recommended dilution. The blots were developed using HyGLO chemiluminescent detection reagent (Denville).
Like RA190, RA475 was designed to be an inhibitor of upstream 19S RP proteasome function. […] Treatment with the same doses of Up284 (0.5 and 1 μM) or 1 μM RA190 provided positive controls, and vehicle alone (DMSO) was used as the negative control. At the end of the incubation, attached cells were lysed using MPER buffer according to the manufacturer's protocol. The lysates were subjected to Western blot analysis using antibody to ubiquitin, and then stripped and re-probed with actin antibody to provide a loading control (FIG. 5).
Proteasome inhibitors cause a rapid accumulation of polyUb proteins that is associated with unresolved UPR stress and the induction of apoptosis. Since RA475 is cytotoxic to ovarian cancer cells (Table 1), and induces such a rapid accumulation of polyUb proteins (FIG. 5), it was examined whether RA475 also triggered apoptosis. SKOV3 cells (FIG. 5A) were treated with Up284 (0.5 μM and 1 μM), 1 μM RA190, RA475 (0.5 μM and 1 μM) or vehicle alone (DMSO) and then cultured for 12 hr. OVCAR3 cells (FIG. 5B) were treated with Up284 (0.5 μM), Bortezomib (Bz, 0.25 μM), Ixazomib (Iz, 0.25 μM), RA475 (0.5 μM and 1 μM) or vehicle alone (DMSO). The attached cells were harvested and their lysates were subjected to Western blot analysis, first probed with antibody to ubiquitin and then to actin.
(In general: In western blotting, separated proteins are transferred to a membrane and probed.)

Data set [3] is described as follows: Plasma stability, mouse EDTA plasma. Format: in vitro ADME. To be noted: 37° C. As to the method: as §1
The nature of data set [4]: Microsomal stability, human liver microsomes. To be noted: for % Drug Remaining: Human Liver Microsomes. Type of data set: in vitro ADME. As to the method:
as §1
(In general: Liver microsomes are vesicles of endoplasmic reticulum, rich in cytochrome P450 enzymes.)

For data set [5], the system named is ES2 cells stably expressing 4UbFL. Briefly: In vitro 4UbFL assay, ES2 cells. Format: cell-based. To be noted: ES2-4UbFL cells, two-fold dilution series, 4 hr. As to the method:
Sub-confluent cultures of ES2 cells stably expressing 4UbFL were seeded at 10,000 cells/well in 96-well microtiter plates. At 18 hr post transfection, cells were treated with compounds or vehicle (DMSO) at the doses indicated. After a 4 hr incubation, the cells were lysed and the luciferase activity in each cell lysate was determined with a luciferase assay kit (Promega) according to the manufacturer's instructions. Bioluminescence was measured by using a luminometer (Glomax Multidetection system, Promega).
To measure RA475 on-target activity in live cells, the inventors used an expression vector for the reporter gene 4UbFL in which the gene for firefly luciferase (FL) is inserted in-frame 3′ to four copies of ubiquitin (PMID: 12819780). […] Proteasome inhibition stabilizes 4UbFL and thus increases the bioluminescence signal upon addition of luciferin substrate, and this can be measured by a luminometer (for cells) or visualized by IVIS imaging (for mice).
ES2 cells stably transfected with 4UbFL expression plasmid (ES2-4UbFL) were plated in a 96 well microtiter plate and 18 hr later treated with DMSO only as a negative control, or two-fold dilution series of either Up284 or RA475. After 4 hr medium was removed and the cells were lysed using luciferase lysis buffer and bioluminescence was measured using a luminometer after the addition of luciferin substrate.

Turning to `Cl.Cl.N#Cc1ccc(/C=C2/C(=O)/C(=C/c3ccc(C#N)cc3)C23CCN(C(=N)N)CC3)cc1` [RA475], the “% Drug Remaining” value in “Neat solution stability” (0 minutes) is reported as 100%; in the data set “Neat solution stability” (30 minutes) it was 108%; in the data set “Neat solution stability” (60 minutes), 111%; in data set [1] (0 minutes), 100%; in data set [1] (30 minutes), 108%; in data set [1] (60 minutes) it was 107%. Further, the “% Drug Remaining” value was 100% in data set [3] (0 minutes); 109% in data set [3] (30 minutes); 109% in data set [3] (60 minutes); 100% in data set [4] (NADPH Neg, 0 minutes); 99% in data set [4] (NADPH Neg, 30 minutes); 93% in data set [4] (NADPH Neg, 60 minutes). The “% Drug Remaining” value came out at 100% in data set [4] (NADPH Pos, 0 minutes); 112% in data set [4] (NADPH Pos, 30 minutes); 102% in data set [4] (NADPH Pos, 60 minutes). In addition, the “accumulation of polyUb proteins” value in data set [2] was “very significant increase in a dose-dependent manner”. For the same molecule, the “maximal decrease of area ratio” value in data set [4] (human liver microsomes lacking NADPH regeneration solution) worked out at 7%. Further, the “bioluminescent signal of 4UbFL reporter” value in data set [5] is “significantly increased”.

For `N#Cc1ccc(/C=C2/C(=O)/C(=C/c3ccc(C#N)cc3)C23CCNCC3)cc1` [Up284, reference compound], the “% Drug Remaining” value in “Neat solution stability” (0 minutes) amounted to 100%; in “Neat solution stability” (30 minutes), 86%; in “Neat solution stability” (60 minutes), 78%; in data set [1] (0 minutes), 100%; in data set [1] (30 minutes), 100%; in data set [1] (60 minutes) it was 90%. Also, the “% Drug Remaining” value was 100% in data set [3] (0 minutes); 84% in data set [3] (30 minutes); 94% in data set [3] (60 minutes); 100% in data set [4] (NADPH Neg, 0 minutes); 57% in data set [4] (NADPH Neg, 30 minutes); 52% in data set [4] (NADPH Neg, 60 minutes). The “% Drug Remaining” value in data set [4] (NADPH Pos, 0 minutes) came out at 100%; in data set [4] (NADPH Pos, 30 minutes) it was 43%; in data set [4] (NADPH Pos, 60 minutes), 43%. Also, the “accumulation of polyUb proteins” value in data set [2] is given as “profound accumulation”. Besides, in data set [5], the “bioluminescent signal of 4UbFL reporter” value was “significantly increased”.
